What was measured:
[1] = test system: Sox-2, CD133 and CD44 proteins; experiment: Western blotting of stemness-maintenance markers in MiaPaCa-2 cells; type: cell-based; settings: BP 0, 12.5, 25 and 50 µg/ml for 24 hours; Figure 6
Method: It has been known that CD44, CD133, Sox-2 (sex-determining region Y protein (SRY)-related high-mobility group box 2) and Oct4 (octamerbinding transcription factor 4) proteins all are stemness-maintenance markers of cancer stem cells and participate in the regulation of the self-renewal and differentiation of cancer stem cells. Brain CSCs ^CD133+ was treated with different concentrations (0, 12.5, 25, 50, 62.5 and 75 µg/ml) of BP for 24 hours, and then, proteins were extracted from the cells to conduct Western blotting to determine the expressions of CD133, Sox-2 and Oct4 proteins in the BP-treated brain CSCs ^CD133+. In addition, MiaPaCa-2 cell line (i.e., a cell line of pancreatic cancer cells) was treated with different concentrations (0, 12.5, 25, and 50 µg/ml) of BP for 24 hours, and then, proteins were extracted from the cells to conduct Western blotting to determine the expressions of Sox-2, CD133 and CD44 proteins in the BP-treated MiaPaCa-2 cells. […]

[2] = test system: Axl and Gas6 proteins, Axl gene; experiment: Western blotting and RT-PCR of Axl and Gas6 in brain CSCs CD133+; type: cell-based; settings: BP 0, 12.5, 25, 50, 62.5 and 75 µg/ml for 24 hours, Figures 9A, 9B
Method: It has been known that the expression of Axl (i.e., a receptor tyrosine kinase) is related to the ability of cancer stem cells in proliferation, anti-apoptosis, migration and invasion. Brain CSCs ^CD133+ was treated with different concentrations (0, 12.5, 25, 50, 62.5 and 75 µg/ml) of BP for 24 hours, and then, proteins and total RNA were extracted from the cells to conduct Western blotting and reverse transcriptase-polymerase chain reaction (RT-PCR) to determine the expressions of Axl and Gas6 (i.e., a ligand of Axl) proteins and the expression of Axl gene in the BP-treated brain CSCs ^CD133+.

MMP-2 = experiment: Western blotting of MMP-2 protein in brain CSCs CD133+; type: cell-based; settings: BP 0, 12.5, 25, 50, 62.5 and 75 µg/ml for 24 hours, Figure 10
Method: It has been known that at the start of the invasion of cancer stem cells, the extracellular matrix (ECM) is degraded by matrix metalloproteinases (MMPs). Wherein, the expressions of gelatinases, such as gelatinase-A (i.e., MMP-2) and gelatinase-B (i.e., MMP-9), are highly related to the histopathology of tumor metastasis. Brain CSCs ^CD133+ was treated with different concentrations (0, 12.5, 25, 50, 62.5 and 75 µg/ml) of BP for 24 hours, and then, proteins were extracted from the cells to conduct Western blotting to determine the expression of MMP-2 protein in the BP-treated brain CSCs ^CD133+.

brain CSCs ^CD133+ = experiment: Wound healing assay with brain CSCs CD133+; type: cell-based; settings: BP 0-75 µg/ml or BCNU 0-400 µM for 24 hours; Figure 13
Excerpt: In this research, a wound healing assay was used to further investigate the effect of BP on inhibiting the metastasis of cancer stem cells.

[3] = test system: HNC-TIC-like oral stem cells (ALDH1^+CD44^+-1 cell line or ALDH1^+CD44^+-2 cell line); experiment: Soft agar colony formation assay with HNC-TIC-like oral stem cells; type: cell-based; settings: BP 0, 25 and 50 µg/ml for 24 hours
Method: In this research, a soft agar colony formation assay was used to investigate the effect of BP on inhibiting the tumor initiating activity of cancer stem cells. First, HNC-TIC-like oral stem cells (i.e., ALDH1^+CD44^+-1 cell line or ALDH1^+CD44^+-2 cell line) were treated with different concentrations (0, 25 and 50 µg/ml) of BP for 24 hours, and then, the treated cells of each group was separately seeded in the top agar [containing DMEM (Dulbecco's Modified Eagle's Medium medium), 10 % (v/v) Fetal Calf Serum (FCS) and 0.3 % (w/v) agar] (purchased from Sigma-Aldrich) at an initial cell number of 2×10^4. On the other hand, a six-well culture dish was coated with the bottom agar [containing DMEM, 10 % (v/v) FCS and 0.6 % (w/v) agar] (purchased from Sigma-Aldrich), 2 ml for each well. After the bottom agar was solidified, each group of the top agar (containing oral cancer stem cells) was respectively added onto the bottom agar in different wells of the dish, 2 ml for each well. […] Lastly, the bottom agar was stained with 0.005 % crystal violet, the number of colonies (with a diameter ≥100 µm) was counted over five fields per well with the use of a microscope, and those fields were photographed. The relative colony-forming ability of cells of each experimental group was calculated based on the result of the group treated with 0 µg/ml of BP.

[4] = test system: HNC-TIC-like oral stem cells stably transfected with GFP-tagged constructs; experiment: Tumor initiating activity animal experiment, subcutaneous GFP-tagged HNC-TIC-like oral stem cells in nude mice; type: in vivo, BALB/c nu/nu mice
Method: In this research, the effect of BP on inhibiting the tumor initiating activity of cancer stem cells was further investigated by animal experiments. First, 5-6 weeks old BALB/c nu/nu mice (weight 18-22 g) were bred under the same condition for 4 weeks. Then, HNC-TIC-like oral stem cells stably transfected with GFP-tagged constructs were injected (1×10^4 cells/0.1 mL/mouse) subcutaneously into the axilla of mice. After tumors reached 100 mm^3, mice were grouped into one control group and two experimental groups (three groups in total, n=3 per group). Then, one experimental group was injected daily with 100 mg/kg of BP for 6 days and another experimental group was injected daily with 200 mg/kg of BP for 6 days. The control group was injected daily with a vehicle (without BP) for 6 days. Ten days after the injection of BP or vehicle, the length and width were measured every 2 days (22 days in total), and then, the average tumor volume was calculated according to the following Formula 1. At the same time, the GFP signal (i.e., green fluorescence) of each group was detected and photographed by the IVIS Imaging system. The GFP intensity of each group was analyzed by Image-Pro Plus software. [length×width^2]/2((unit:mm)^3) [formula]

Compound: CCCC=C1OC(=O)c2ccccc21 [BP, butylidenephthalide]
- expressions of Sox-2, CD133 and CD44 proteins in MiaPaCa-2 cells [1]: significantly decreased
- expressions of Axl and Gas6 proteins and the expression of Axl gene [2]: significantly decreased
- expression of MMP-2 protein (MMP-2): significantly decreased
- number of brain CSCs ^CD133+ migrated to the wound (brain CSCs ^CD133+): significantly decreased
- number of colonies in the bottom agar ([3]; 4 weeks culture, Figure 15A): significantly decreased
- relative colony-forming ability of cancer stem cells ([3]; relative to 0 µg/ml group, Figure 15B): decreased along with the increment in the concentration of BP
- GFP intensity ([4]; 100 mg/kg and 200 mg/kg groups, injected daily for 6 days, compared to control group, Figures 16C, 16D): significantly decreased
- tumor volume ([4]; 100 mg/kg and 200 mg/kg groups, injected daily for 6 days, over a period of time after BP injection, Figure 16B): decreased
- body weight of mice ([4]; 100 mg/kg or 200 mg/kg of BP injected daily for 6 days, Figure 16A): didn't change significantly
